Key:
[1] = system: restraint ulcers in rats; assay: inhibition of restraint ulcers in rats (Bonfils method); assay type: in vivo; details: po; approximate ED50; rat, per os one hour before immobilization, lesions counted 4 hours after immobilization; read-out: Antiulcerogenic activity p.o. ED50
Text: The compounds of the present invention are active on the gastroenteric system, in particular they are endowed with anti-ulcerogenic and gastric anti-secretory activity and are therefore useful in therapy, for example in the prevention and treatment of peptic, e.g. duodenal, gastric and esophageal, ulcers and to inhibit gastric acid secretion. The compounds of the invention are also useful for reducing the undesiderable gastrointestinal side-effects resulting from systemic administration of anti-inflammatory prostaglandin synthetase inhibitors and may be, therefore, used for this purpose in association with them. The anti-ulcerogenic activity of the compounds of the invention is shown, e.g., by the fact that they are active in the test of the inhibition of restraint ulcers in rats, according to the method of Bonfils et al., (Therapie, 1960, 5, 1096; Jap. J. Pharmac. 1945, 43, 5). Six Sprague-Dawley male rats (100-120 g) fasted 24 hours were used for the experiment: a square flexible small-mesh wire netting was used for the immobilization and 4 hours after the immobilization the rats were sacrificed, their stomachs were removed and the lesions counted under a dissecting microscope. The tested compounds were administered per os (p.o.) one hour before the immobilization.

[2] = system: carrageenin induced oedema; assay: carrageenin induced oedema in the hind paw of rats; assay type: in vivo; details: approximate ED25; rat, oral administration; read-out: Anti-inflammatory activity Carrageenin induced oedema ED25
Text: (§1) A. Winter et al. (J. Pharmac. Exp. Therap. 1963, 141, 369) and P. Lence (Arch. Int. Pharmacodyn., 1962, 136, 237), and (B) the Reversed Passive Arthus Reaction (RPAR) in rat paw, induced by the interaction of antigen and antibody resulting in the formation of precipitating immune complex, followed by fixation of complement and accumulation of polymorphonuclear leucocytes at a focal point (D. K. GEMMELL, J. COTTNEY and A. J. LEWIS, Agents and Actions 9/1 pag. 107, 1979). The compounds of this invention are also endowed with analgesic activity. The analgesic activity was assessed, for example, by means of phenylquinone induced writhing test in mice according to Siegmund [Siegmund et al. Proc. Soc. Exper. Biol. Med., 95, 729 (1957)].
(§2) Therefore the compounds of the invention may be used in therapy to treat pains and inflammatory processes, such as for example, rheumatoid arthritis and osteoarthrosis. The following Tables II and III show, for example, the approximate ED25 values of the anti-inflammatory activity in the above tests in the rat after oral administration for some compounds of this invention: […]

[3] = system: Reversed Passive Arthus Reaction (RPAR); assay: Reversed Passive Arthus Reaction (RPAR) in rat paw; assay type: in vivo; details: approximate ED25, oral administration, read-out: Anti-inflammatory activity RPAR reaction ED25
Text: as §1, §2

[4] = system: phenylquinone induced writhing; assay: phenylquinone induced writhing test (Siegmund); assay type: in vivo, mice; details: Mus musculus; approximate ED25; printed 'in the rat', after oral administration; read-out: analgesic activity ED25, phenylquinone-induced writhing test
Text: as §1
With regard to the analgesic activity, one of the preferred compounds of this invention is, for example, the compound 2-chloro-7-trans-[2-(3-pyridyl)-ethenyl]-5H-thiazolo[3,2-a]pyrimidine-5-one, wich has an approximate ED25 value of 25 mg/kg in the phenylquinone-induced writhing test in the rat, after oral administration. Furthermore the compounds of this invention are effective in the inhibiting the TXA2 synthetase in vivo and may be therefore useful in therapy, for example, in the prevention and treatment of all kinds of thrombosis, peripheral vasculopaties and coronary artery diseases.

[5] = acute toxicity (LD50) in the mouse; details: in vivo, po, per os, single administration of increasing doses, measured on the seventh day, read-out: approximate acute toxicity (LD50)
Protocol: In view of their high therapeutic index, the compounds of the invention can be used safely in medicine. For example, the approximate acute toxicity (LD50) of the compounds 7-trans-[2-(3-pyridyl)-ethenyl]-5H-thiazolo[3,2-a]pyrimidine-5-one and 2-chloro-7-trans-[2-(3-pyridyl)-ethenyl]-5H-thiazolo[3,2-a]pyrimidine-5-one in the mouse determined by single administration of increasing doses and measured on the seventh day of treatment, is higher than 800 mg/kg per os. Analogous toxicity data have been found for other compounds of the invention.

[6] = system: gastric secretion in rats; assay: gastric antisecretory activity, pylorus ligature technique (Shay method); assay type: in vivo; details: approximate ED50; rat, intraduodenal administration at the time of ligature, 4 hours
Protocol: Gastric antisecretory activity was evaluated in rats by the pylorus ligature technique. Six Sprague-Dawley male rats (110-130 g) were used for each group. Twenty-four hours before the test, the rats were deprived of food but their water supply was maintained. On the day of the operation, the pylorus was ligated under light ether anaesthesia. Each compound was injected intraduodenally (i.d.) at the time of the ligature. Four hours after the ligature the rats were sacrificed, the stomach secretion was collected and centrifuged at 3500 r.p.m. for 10 minutes, and the volume, less sediment, was determined.
The amount of the free hydrochloric acid in the gastric juice was determined by titration against 0.01 N sodium hydroxide to pH 7.0.

[7] = target: T1, TXA2 synthetase (Rattus norvegicus, UniProt P49430); assay: TXA2 synthetase inhibition in vivo, TXB2 concentration in serum; details: single oral dose of 10 mg/kg, TXB2 in serum two hours after administration
T1 construct: determining the concentration of TXB2 in the serum of the animals killed two hours after the administration of the drug; from tissue; host or cells: living rat, serum sampled after oral dosing (endogenous enzyme)
T1 sequence (P49430 1-533): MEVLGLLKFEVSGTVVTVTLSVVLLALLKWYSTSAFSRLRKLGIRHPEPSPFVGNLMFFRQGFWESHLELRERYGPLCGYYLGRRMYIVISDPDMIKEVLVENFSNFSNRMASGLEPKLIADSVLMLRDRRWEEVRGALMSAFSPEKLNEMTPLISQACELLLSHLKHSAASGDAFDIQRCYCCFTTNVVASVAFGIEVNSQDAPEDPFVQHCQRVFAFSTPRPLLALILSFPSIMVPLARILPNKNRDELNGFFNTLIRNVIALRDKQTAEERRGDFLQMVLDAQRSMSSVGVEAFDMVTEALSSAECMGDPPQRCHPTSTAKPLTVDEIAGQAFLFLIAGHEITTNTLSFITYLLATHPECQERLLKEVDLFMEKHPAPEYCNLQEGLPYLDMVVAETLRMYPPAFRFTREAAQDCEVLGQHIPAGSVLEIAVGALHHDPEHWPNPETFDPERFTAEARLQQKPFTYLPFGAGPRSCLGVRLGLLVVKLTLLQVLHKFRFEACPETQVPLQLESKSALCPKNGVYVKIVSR
Protocol: The activity on the TXA2 synthetase was evaluated, e.g., in rat by administering the compounds at a single oral dose of 10 mg/kg and determining the concentration of TXB2 in the serum of the animals killed two hours after the administration of the drug.

Structure (SMILES) | ED50 [1] [mg/kg] | ED25 [2] [mg/kg] | ED25 [3] [mg/kg] | ED25 [4] [mg/kg] | LD50 at 168 h [5] [mg/kg] | ED50 [6] [mg/kg] | TXA2 synthetase inhibiting activity [7]
O=c1cc(/C=C/c2cccnc2)nc2sc(Cl)cn12 [2-chloro-7-trans-[2-(3-pyridyl)-ethenyl]-5H-thiazolo[3,2-a]pyrimidine-5-one] | 10 | 16 | 25 | ~25 | > 800 | – | –
COc1c(/C=C/c2cccnc2)nc2sccn2c1=O [6-methoxy-7-trans-[2-(3-pyridyl)-ethenyl]-5H-thiazolo[3,2-a]pyrimidine-5-one] | – | 15 | – | – | – | ~30 | –
Cc1c(/C=C/c2cccnc2)nc2sccn2c1=O [6-methyl-7-trans-[2-(3-pyridyl)-ethenyl]-5H-thiazolo[3,2-a]pyrimidine-5-one] | – | – | – | – | – | – | having TXA2 synthetase inhibiting activity
O=c1cc(/C=C/c2cccnc2)nc2sccn12 [7-trans-[2-(3-pyridyl)-ethenyl]-5H-thiazolo[3,2-a]pyrimidine-5-one] | 9 | 6 | – | – | > 800 | – | –
